22 compounds from patent US8722661B2, “Pyrrolopyrimidone and pyrrolopyridone inhibitors of tankyrase” (Genentech, Inc., priority 2012, dated 2014) can be followed below.

The IC50 is the point on the concentration scale where inhibition reaches its midpoint. Low readings indicate greater potency, high ones weaker potency.

One assay has as its target T1, Tankyrase 1 (TNKS1) (Homo sapiens, UniProt O95271).
T1 construct: construct: 1088-1327, 1266M
Kind of assay: μHTS-TNKS-IWR2 TR-FRET binding assay (TNKS1). The procedure:
(§1) μHTS-TNKS-IWR2TR-FRET Binding Assay
(§2) (10 μL/well in BD1536-well plate, a single point)
Reagents and Stock Solutions
(§3) Biotin-IWR2: 10 mM Biotin-IWR2 stock in DMSO, stored at −20° C.
Assay buffer 1a (AB 1a) for TNKS dilution: 50 mM Tris, pH 7.4, 100 mM sodium chloride solution, 1 mM magnesium chloride solution, 1 mM DL-dithiothreitol solution, 0.2 mg/mL bovine serum albumin solution, 0.025% NP-40.
Assay buffer 1b (AB 1b) for Biotin-IWR2 dilution: 50 mM Tris, pH 7.4, 100 mM sodium chloride solution, 1 mM magnesium chloride solution, 1 mM DL-dithiothreitol solution, 0.2 mg/mL bovine serum albumin solution, 0.05% NP-40
Assay buffer 1c (AB 1c) for compound dilution: 50 mM Tris, pH 7.4, 100 mM sodium chloride solution, 1 mM magnesium chloride solution, 1 mM DL-dithiothreitol solution, 0.2 mg/mL bovine serum albumin solution
Assay buffer 2 (AB2) for Eu/APC: 50 mM Tris, pH 7.4, 100 mM sodium chloride solution, 1 mM magnesium chloride solution, 0.2 mg/mL bovine serum albumin solution
Reagent Stock Solution Preparation
Prepare BLANK well stock solution: 5% DMSO/AB1b buffer
Prepare TNKS1 stock solution (5× stock): 300 nM TNKS in AB1a buffer
(§4) Transfer 3 μL/well above solution (solution 1,2,3) to an empty assay plate (BD1536-well plate) as follows:
TOTL and cpd wells: Solution 1 (Biotin-IWR2):
BLNK wells: Solution 2 (No Biotin-IWR2):
POSITIVE CONTROL wells: Solution 3 (Biotin-IWR2+XAV939)
(§5) Transfer 3 μL/well of the above diluted compound solutions or compound dilution buffer to the above assay plate.
(§6) Add 2 μL/well of 300 nM TNKS stock solution (4) to every well in the above assay plate.
Centrifuge the assay plate at 2100 rpm for 2 minutes.
(§7) Incubate the assay plate at 26° C. for 30 minutes.
(§8) Incubate the assay plate at 26° C. for 60 minutes.
In general terms: TR-FRET usually uses a lanthanide donor and a delayed reading to cut background.

The target of assay [1] is T2, PARP1 (His6-PARP1, full length) (Homo sapiens, UniProt P09874).
T2 construct: His6-PARP1 (full length)
T2 sequence (P09874 whole entry): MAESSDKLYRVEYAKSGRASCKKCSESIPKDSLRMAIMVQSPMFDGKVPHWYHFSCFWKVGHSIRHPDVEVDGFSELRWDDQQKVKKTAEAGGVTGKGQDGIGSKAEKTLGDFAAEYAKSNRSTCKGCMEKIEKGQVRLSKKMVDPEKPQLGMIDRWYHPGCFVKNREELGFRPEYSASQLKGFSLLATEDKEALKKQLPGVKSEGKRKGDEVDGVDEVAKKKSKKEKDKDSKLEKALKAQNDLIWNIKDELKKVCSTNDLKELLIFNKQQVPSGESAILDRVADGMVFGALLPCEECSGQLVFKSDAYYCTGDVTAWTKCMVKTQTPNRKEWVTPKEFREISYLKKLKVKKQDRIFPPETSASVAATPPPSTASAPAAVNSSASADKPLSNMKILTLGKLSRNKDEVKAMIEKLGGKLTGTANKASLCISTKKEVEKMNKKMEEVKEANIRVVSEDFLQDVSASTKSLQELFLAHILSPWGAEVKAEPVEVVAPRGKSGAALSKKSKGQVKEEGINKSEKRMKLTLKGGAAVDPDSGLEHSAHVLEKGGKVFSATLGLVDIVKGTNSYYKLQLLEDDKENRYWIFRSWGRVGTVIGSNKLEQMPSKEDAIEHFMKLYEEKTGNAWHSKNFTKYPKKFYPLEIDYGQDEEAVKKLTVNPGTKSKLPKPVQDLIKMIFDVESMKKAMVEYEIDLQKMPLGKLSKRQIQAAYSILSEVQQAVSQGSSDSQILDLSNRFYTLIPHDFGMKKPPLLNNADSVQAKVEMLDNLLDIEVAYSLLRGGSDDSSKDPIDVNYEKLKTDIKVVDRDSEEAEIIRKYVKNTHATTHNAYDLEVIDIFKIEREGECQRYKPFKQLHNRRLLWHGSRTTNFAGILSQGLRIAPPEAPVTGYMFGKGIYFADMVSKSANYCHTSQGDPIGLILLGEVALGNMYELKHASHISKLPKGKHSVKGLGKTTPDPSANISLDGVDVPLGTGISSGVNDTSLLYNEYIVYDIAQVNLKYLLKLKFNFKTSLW
As to the kind of experiment: μHTS-TNKS-IWR2 TR-FRET binding assay with His6-PARP1 in place of TNKS1. Particulars: Table I. The procedure: as §1, §2
(§9) Alternatively, in place of His6-TNKS1 can use either His6-tankyrase 2 (construct: 934-1166) (His6-TNKS2) or His6-PARP1 (full length).
as §3
Positive control: 10 mM […] in DMSO, stored at −20° C.
(§10) Prepare Biotinylated IWR2 stock solution (3.33× stock) for TOTL and cpd wells: 200 nM Biotin-IWR2 in 5% DMSO/AB1b buffer
(§11) Prepare POSITIVE CONTROL well stock solution (3.33× stock): 200 nM XAV939 in 200 nM Biotin-IWR2/5% DMSO/AB1b buffer
(§12) (Alternatively, use TNKS2 or PARP1 stock solutions.)
(§13) Prepare Eu/APC stock solution (5× stock): 3.5 nM Eu-SA/50 nM APC-His6Ab in AB2 buffer
(§14) Add 25 μL/well 1.5% DMSO/AB1c buffer in each compound well to the compound concentration at 74 μM in 8.8% DMSO/AB1c buffer or in the 2 μL DMSO CONTROL wells (BLANK, TOTAL and POSITIVE wells) in the compound plate.
as §4, §5, §6, §7, §8
(§15) Read the assay plate immediately at excitation wavelength of 330 nm and emission wavelength of […] in time resolved fluorescence mode.
(§16) Representative compound data for assays are listed below in Table I. Values are in uM.

Another assay addresses T3, tankyrase 2 (His6-TNKS2) (Homo sapiens, UniProt Q9H2K2).
T3 construct: His6-tankyrase 2 (construct: 934-1166)
As to the kind of experiment: μHTS-TNKS-IWR2 TR-FRET binding assay with His6-TNKS2 in place of TNKS1. Particulars: Table I. The procedure: as §1, §2, §9, §3
Positive control: 10 mM XAV 939 in DMSO, stored at −20° C.
as §10, §11, §12, §13, §14, §4, §5, §6, §7, §8, §15, §16

Where only a bound is given, the exact number is not on record here.

T1 sequence (O95271 1088-1327): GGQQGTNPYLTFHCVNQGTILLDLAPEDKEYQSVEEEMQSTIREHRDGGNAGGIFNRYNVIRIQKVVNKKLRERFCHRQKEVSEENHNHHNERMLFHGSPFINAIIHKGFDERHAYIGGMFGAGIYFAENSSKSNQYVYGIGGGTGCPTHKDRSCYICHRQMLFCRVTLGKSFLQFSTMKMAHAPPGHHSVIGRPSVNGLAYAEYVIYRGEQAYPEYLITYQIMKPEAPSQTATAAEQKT
T3 sequence (Q9H2K2 934-1166): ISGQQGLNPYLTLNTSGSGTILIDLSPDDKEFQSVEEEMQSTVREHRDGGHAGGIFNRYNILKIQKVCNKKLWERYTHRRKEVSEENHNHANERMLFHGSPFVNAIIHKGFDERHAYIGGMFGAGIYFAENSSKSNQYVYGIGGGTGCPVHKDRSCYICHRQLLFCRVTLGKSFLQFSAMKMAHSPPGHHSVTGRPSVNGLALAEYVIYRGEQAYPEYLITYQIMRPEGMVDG

For the compound `Cn1ccc2c(=O)[nH]c(N3CCN(c4ccncc4)CC3)nc21` [Example 1, 7-Methyl-2-(4-pyridin-4-yl-piperazin-1-yl)-3,7-dihydro-pyrrolo[2,3-d]pyrimidin-4-one], the IC50 was 722 nM at Tankyrase 1 (TNKS1), 143 nM in assay [1] and 593 nM on tankyrase 2 (His6-TNKS2).
In the case of `CCOC(=O)c1ccc(N2CCN(c3nc4c(ccn4C)c(=O)[nH]3)CC2)cc1` [Example 2, Ethyl 4-(4-(7-methyl-4-oxo-4,7-dihydro-3H-pyrrolo[2,3-d]pyrimidin-2-yl)piperazin-1-yl)benzoate], the IC50 came out at 70 nM on Tankyrase 1 (TNKS1), 564 nM in assay [1] and 66 nM on tankyrase 2 (His6-TNKS2).
Take `Cn1ccc2c(=O)[nH]c(N3CCN(c4ccc(Cl)cc4)CC3)nc21` [Example 3, 2-[4-(4-Chloro-phenyl)-piperazin-1-yl]-7-methyl-3,7-dihydro-pyrrolo[2,3-d]pyrimidin-4-one]: the 50% inhibitory concentration (IC50) at Tankyrase 1 (TNKS1) is 42 nM; in assay [1], 1060 nM; at tankyrase 2 (His6-TNKS2) it was 51 nM.
Taken in the same sequence, the figures for `Cn1ccc2c(=O)[nH]c(N3CCN(c4ccccn4)CC3)nc21` [Example 4, 7-Methyl-2-(4-pyridin-2-yl-piperazin-1-yl)-3,7-dihydro-pyrrolo[2,3-d]pyrimidin-4-one] were 134 nM, 437 nM and 118 nM.
For `Cn1ccc2c(=O)[nH]c(N3CCN(c4ccc(F)cc4S(C)(=O)=O)CC3)nc21` [Example 5, 2-[4-(4-Fluoro-2-methanesulfonyl-phenyl)-piperazin-1-yl]-7-methyl-3,7-dihydro-pyrrolo[2,3-d]pyrimidin-4-one], the IC50 turned out to be 30 nM on Tankyrase 1 (TNKS1), 1180 nM in assay [1] and 35 nM at tankyrase 2 (His6-TNKS2).
For `Cn1ccc2c(=O)[nH]c(N3CCN(c4ncccc4C(F)(F)F)CC3)nc21` [Example 6, 7-Methyl-2-[4-(3-trifluoromethyl-pyridin-2-yl)-piperazin-1-yl]-3,7-dihydro-pyrrolo[2,3-d]pyrimidin-4-one] the same measures were 34 nM, 2210 nM and 36 nM.
For `Cn1ccc2c(=O)[nH]c(N3CCN(c4cc(Cl)cc(Cl)c4)CC3)nc21` [Example 7, 2-[4-(3,5-Dichloro-phenyl)-piperazin-1-yl]-7-methyl-3,7-dihydro-pyrrolo[2,3-d]pyrimidin-4-one], the IC50 at Tankyrase 1 (TNKS1) was 494 nM; in assay [1] it was over 50000 nM; on tankyrase 2 (His6-TNKS2), 405 nM.
Taken in the same sequence, the figures for `Cn1ccc2c(=O)[nH]c(N3CCN(c4ncccn4)CC3)nc21` [Example 8, 7-Methyl-2-(4-pyrimidin-2-yl-piperazin-1-yl)-3,7-dihydro-pyrrolo[2,3-d]pyrimidin-4-one] were 190 nM, 339 nM and 143 nM.
`Cn1ccc2c(=O)[nH]c(N3CCN(c4ncccc4C#N)CC3)nc21` [Example 9, 2-[4-(7-Methyl-4-oxo-4,7-dihydro-3H-pyrrolo[2,3-d]pyrimidin-2-yl)-piperazin-1-yl]-nicotinonitrile]: the IC50 on Tankyrase 1 (TNKS1) amounted to 70 nM; in assay [1], 618 nM; on tankyrase 2 (His6-TNKS2), 63 nM.
On to `Cn1ccc2c(=O)[nH]c(N3CCN(c4nccnc4C#N)CC3)nc21` [Example 10, 4-(7-Methyl-4-oxo-4,7-dihydro-3H-pyrrolo[2,3-d]pyrimidin-2-yl)-3,4,5,6-tetrahydro-2H-[1,2]bipyrazinyl-3′-carbonitrile], for which the IC50 on Tankyrase 1 (TNKS1) is 111 nM; in assay [1] it was 603 nM; at tankyrase 2 (His6-TNKS2), 121 nM.
With `CN1CCN(c2nc3c(ccn3C)c(=O)[nH]2)CC1` [Example 11, 7-Methyl-2-(4-methyl-piperazin-1-yl)-3,7-dihydro-pyrrolo[2,3-d]pyrimidin-4-one], the IC50 at Tankyrase 1 (TNKS1) came to 358 nM; in assay [1], 471 nM; at tankyrase 2 (His6-TNKS2), 285 nM.
As for `Cn1ccc2c(=O)[nH]c(N3CCOCC3)nc21` [Example 12, 7-Methyl-2-morpholin-4-yl-3,7-dihydro-pyrrolo[2,3-d]pyrimidin-4-one], the IC50 on Tankyrase 1 (TNKS1) is 1910 nM; in assay [1], 1720 nM; at tankyrase 2 (His6-TNKS2), 1830 nM.
On to `Cn1ccc2c(=O)[nH]c(N3CCN(S(C)(=O)=O)CC3)nc21` [Example 13, 2-(4-Methanesulfonyl-piperazin-1-yl)-7-methyl-3,7-dihydro-pyrrolo[2,3-d]pyrimidin-4-one], for which the IC50 on Tankyrase 1 (TNKS1) amounted to 112 nM; in assay [1] it was 604 nM; on tankyrase 2 (His6-TNKS2), 126 nM.
For `CC(=O)N1CCN(c2nc3c(ccn3C)c(=O)[nH]2)CC1` [Example 14, 2-(4-Acetyl-piperazin-1-yl)-7-methyl-3,7-dihydro-pyrrolo[2,3-d]pyrimidin-4-one] the same measures were 466 nM, 229 nM and 427 nM.
On to `Cn1ccc2c(=O)[nH]c(N3CC(C)(c4ccc(Br)cc4)C3)nc21` [Example 15, 2-[3-(4-Bromo-phenyl)-3-methyl-azetidin-1-yl]-7-methyl-3,7-dihydro-pyrrolo[2,3-d]pyrimidin-4-one], for which the IC50 was determined as 348 nM on Tankyrase 1 (TNKS1), 3460 nM in assay [1] and 192 nM at tankyrase 2 (His6-TNKS2).
In the case of `Cn1ccc2c(=O)[nH]c(N3CCC(c4ccccc4)C3)nc21` (stereo not drawn) [Example 16, 7-Methyl-2-(3-phenyl-pyrrolidin-1-yl)-3,7-dihydro-pyrrolo[2,3-d]pyrimidin-4-one], the IC50 at Tankyrase 1 (TNKS1) worked out at 915 nM; in assay [1] it was 1260 nM; on tankyrase 2 (His6-TNKS2) it was 1070 nM.
Take `Cn1ccc2c(=O)[nH]c(N3CCN(c4ccc(F)cc4)CC3)nc21` [Example 17, 2-[4-(4-Fluoro-phenyl)-piperazin-1-yl]-7-methyl-3,7-dihydro-pyrrolo[2,3-d]pyrimidin-4-one]: the IC50 worked out at 27 nM at Tankyrase 1 (TNKS1), 1080 nM in assay [1] and 32 nM at tankyrase 2 (His6-TNKS2).
Turning to `Cn1ccc2c(=O)[nH]c(N3CCN(c4cccc(F)c4)CC3)nc21` [Example 18, 2-[4-(3-Fluoro-phenyl)-piperazin-1-yl]-7-methyl-3,7-dihydro-pyrrolo[2,3-d]pyrimidin-4-one], the IC50 on Tankyrase 1 (TNKS1) came to 59 nM; in assay [1] it was 758 nM; at tankyrase 2 (His6-TNKS2), 59 nM.
As to `Cn1ccc2c(=O)[nH]c(N3CCN(c4ccccc4C#N)CC3)nc21` [Example 19, 2-[4-(7-Methyl-4-oxo-4,7-dihydro-3H-pyrrolo[2,3-d]pyrimidin-2-yl)-piperazin-1-yl]-benzonitrile], the concentration for half-maximal inhibition (IC50) on Tankyrase 1 (TNKS1) is 43 nM; in assay [1], 1050 nM; at tankyrase 2 (His6-TNKS2), 34 nM.
With `Cn1ccc2c(=O)[nH]c(N3CCN(c4ccc(F)cc4F)CC3)nc21` [Example 20, 2-[4-(2,4-Difluoro-phenyl)-piperazin-1-yl]-7-methyl-3,7-dihydro-pyrrolo[2,3-d]pyrimidin-4-one], the IC50 stood at 31 nM on Tankyrase 1 (TNKS1), 1220 nM in assay [1] and 36 nM at tankyrase 2 (His6-TNKS2).
Regarding `Cn1ccc2c(=O)[nH]c(N3CCN(c4cccc(C#N)c4)CC3)nc21` [Example 21, 3-[4-(7-Methyl-4-oxo-4,7-dihydro-3H-pyrrolo[2,3-d]pyrimidin-2-yl)-piperazin-1-yl]-benzonitrile], the IC50 stood at 81 nM at Tankyrase 1 (TNKS1), 612 nM in assay [1] and 90 nM on tankyrase 2 (His6-TNKS2).
As to `Cn1ccc2c(=O)[nH]c(N3CCN(c4ccc(C#N)cc4)CC3)nc21` [Example 22, 4-[4-(7-Methyl-4-oxo-4,7-dihydro-3H-pyrrolo[2,3-d]pyrimidin-2-yl)-piperazin-1-yl]-benzonitrile], the half-maximal inhibitory concentration (IC50) on Tankyrase 1 (TNKS1) was 97 nM; in assay [1] it was 453 nM; on tankyrase 2 (His6-TNKS2), 74 nM.
